Target: T1, human metabotropic glutamate 7 receptor (hmGlu7) (Homo sapiens, UniProt Q14831)
T1 construct: expressed in transfected cells
Assay: mGlu7 assay on HEK-expressing human mGlu7: fluorescent cell based Ca2+ mobilization assay (FLIPR), inhibition of EC80 L-AP4 response
Conditions: HEK-293 cells expressing hmGlu7; EC80 L-AP4 stimulation; mean of at least three independent experiments in duplicate; read-out: Ca2+ Flux (mean IC50)
Text: mGlu7 Assay on HEK-Expressing Human mGlu7
The cDNA encoding the human metabotropic glutamate 7 receptor (hmGlu7), (accession number NM_181874.2, NCBI Nucleotide database browser), was subcloned into an expression vector containing also the hygromycin resistance gene. In parallel, the cDNA encoding a G protein allowing redirection of the activation signal to intracellular calcium flux was subcloned into a different expression vector containing also the Puromycin resistance gene. Transfection of both these vectors into HEK293 cells with PolyFect reagent (Qiagen) according to supplier's protocol, and hygromycin and puromycin treatment allowed selection of antibiotic resistant cells which had integrated stably one or more copies of the plasmids. Positive cellular clones expressing hmGlu7 were identified in a functional assay measuring changes in calcium fluxes in response to glutamate and L-AP4 or known mGlu7 orthosteric antagonists.
HEK-293 cells expressing hmGlu7 were maintained in media containing DMEM, Fetal Bovine Serum (10%), Glutamax™ (2 mM), penicillin (100 units/mL), streptomycin (100 μg/mL), geneticin (100 μg/mL) and hygromycin-B (40 μg/mL) and puromycin (1 μg/mL) at 37° C. with 5% CO2 in a humidified atmosphere.
Fluorescent Cell Based-Ca^2+ Mobilization Assay Human mGlu7 HEK-293 cells were plated out 24 hours prior to a fluorescent cell-based calcium mobilization assay using FLIPR^384 assay (Molecular Device, Sunnyvale, CA, USA) in black-walled, clear-bottomed, poly-L-ornithine-coated 384-well plates at a density of 25,000 cells/well in a glutamine/glutamate free DMEM medium containing fetal bovine serum (10%), penicillin (100 units/mL), streptomycin (100 μg/mL) and doxycyline (1 μg/ml) at 37° C. with 5% CO2 in a humidified atmosphere.
On the day of the assay, the medium was aspirated and the cells were loaded with a 3 μM solution of Fluo4-AM (LuBioScience, Lucerne, Switzerland) in 0.03% pluronic acid. After 1 hour at 37° C./5% CO2, the non incorporated dye was removed by washing cell plate with the assay buffer. All assays were performed in a pH 7.4 buffered-solution containing 20 mM HEPES, 143 mM NaCl, 6 mM KCl, 1 mM MgSO4, 1 mM CaCl2, 0.125 mM sulfinpyrazone and 0.1% glucose.
After 10 s of basal fluorescence recording, various concentrations of the compounds of the invention were added to the cells. Changes in fluorescence levels were first monitored for 180 s in order to detect any agonist activity of the compounds. Then the cells were stimulated by an EC80 L-AP4 concentration for an additional 110 s in order to measure inhibiting activities of the compounds of the invention. EC80 L-AP4 concentration is the concentration giving 80% of the maximal glutamate response.
The concentration-response curves of L-AP4 or representative compounds of the present invention were generated using the Prism GraphPad software (Graph Pad Inc, San Diego, USA). The curves were fitted to a four-parameter logistic equation: […]
allowing determination of IC50 values.
The Table 3 below represents the mean IC50 obtained from at least three independent experiments of selected molecules performed in duplicate.

T1 sequence (Q14831 35-922 isoform Q14831-2): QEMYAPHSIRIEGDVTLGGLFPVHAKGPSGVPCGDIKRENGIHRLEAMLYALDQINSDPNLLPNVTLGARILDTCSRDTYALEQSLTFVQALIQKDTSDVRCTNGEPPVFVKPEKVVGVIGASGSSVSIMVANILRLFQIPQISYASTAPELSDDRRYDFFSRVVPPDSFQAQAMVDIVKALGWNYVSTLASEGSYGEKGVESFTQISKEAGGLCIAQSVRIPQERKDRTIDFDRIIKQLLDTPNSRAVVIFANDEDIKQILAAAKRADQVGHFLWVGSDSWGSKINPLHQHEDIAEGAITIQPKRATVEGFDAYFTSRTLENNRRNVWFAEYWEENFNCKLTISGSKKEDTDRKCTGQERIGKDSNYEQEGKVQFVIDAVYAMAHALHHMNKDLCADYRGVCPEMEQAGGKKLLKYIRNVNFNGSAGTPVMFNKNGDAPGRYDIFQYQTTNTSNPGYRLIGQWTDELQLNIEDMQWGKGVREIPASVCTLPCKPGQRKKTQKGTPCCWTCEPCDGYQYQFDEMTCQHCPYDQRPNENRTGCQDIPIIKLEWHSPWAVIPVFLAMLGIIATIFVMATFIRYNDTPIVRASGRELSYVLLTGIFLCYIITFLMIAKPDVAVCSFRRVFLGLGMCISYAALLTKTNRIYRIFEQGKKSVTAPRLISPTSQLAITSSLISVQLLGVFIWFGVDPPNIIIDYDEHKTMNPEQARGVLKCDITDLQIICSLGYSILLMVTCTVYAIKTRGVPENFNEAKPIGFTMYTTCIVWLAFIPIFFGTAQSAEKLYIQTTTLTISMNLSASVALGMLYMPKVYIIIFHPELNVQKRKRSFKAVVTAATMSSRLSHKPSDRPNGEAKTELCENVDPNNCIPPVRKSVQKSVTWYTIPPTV

SMILES	IC50
COCCOc1ccc(-n2ncc3c(C)n(-c4cccc(N5CCC5)c4)c(C)c3c2=O)cc1 [1-162]	< 100 nM
Cc1c2cnn(-c3ccccn3)c(=O)c2c(C)n1-c1cccc(N2CC(F)(F)C2)c1 [1-153]	100 to 1000 nM
COc1cccc(-n2c(C)c3cnn(-c4cc[nH]c(=O)c4)c(=O)c3c2C)c1 [1-129]	100 to 1000 nM
Cc1c2cnn(-c3ncc(F)cn3)c(=O)c2c(C)n1-c1cc(N2CCC2)ccc1F [1-218]	100 to 1000 nM
CCc1c2c(=O)n(-c3ccccc3)ncc2c(C)n1-c1cccc(OC)c1 [1-89]	100 to 1000 nM
Cc1c2cnn(-c3ncccn3)c(=O)c2c(C)n1-c1cccc(N2CCC2)c1 [1-223]	100 to 1000 nM
COc1cccc(-n2c(C)c3cnn(-c4cncc(OC)c4)c(=O)c3c2C)c1 [1-94]	100 to 1000 nM
Cc1c2cnn(-c3ccccc3)c(=O)c2c(C)n1-c1ccccc1 [1-4]	100 to 1000 nM
COCc1cccc(-n2ncc3c(C)n(-c4cccc(OC)c4)c(C)c3c2=O)c1 [1-116]	< 100 nM
CCOc1cccc(-n2c(C)c3cnn(-c4ccccn4)c(=O)c3c2C)c1 [1-77]	100 to 1000 nM
Cc1cnc(-n2ncc3c(C)n(-c4cccc(OC5CC5)c4C)c(C)c3c2=O)nc1 [1-205]	< 100 nM
COc1cccc(-n2c(C)c3cnn(-c4ccccn4)c(=O)c3c2C)c1 [1-44]	100 to 1000 nM
Cc1c2cnn(-c3ccccn3)c(=O)c2c(C)n1-c1ccc2c(c1)OCO2 [1-55]	100 to 1000 nM
Cc1c2cnn(-c3ccc(Cl)cn3)c(=O)c2c(C)n1-c1cccc(N2CCC2)c1 [1-183]	< 100 nM
Cc1c2cnn(-c3ccccn3)c(=O)c2c(C)n1-c1cccc(Oc2ccccc2)c1 [1-187]	1000 to 10000 nM
CCc1cccc(-n2c(C)c3cnn(-c4ccccn4)c(=O)c3c2C)c1 [1-85]	100 to 1000 nM

Other lines, results leading:

IC50	SMILES
100 to 1000 nM	COc1ccc(-n2c(C)c3cnn(-c4ccc(CO)cc4)c(=O)c3c2C)cc1 [1-98]
1000 to 10000 nM	Cc1c2cnn(-c3ccccc3)c(=O)c2c(C)n1-c1cccc(Br)c1 [1-34, 6-(3-bromophenyl)-5,7-dimethyl-2-phenyl-2,6-dihydro-1H-pyrrolo[3,4-d]pyridazin-1-one]
< 100 nM	COc1cccc(-n2c(C)c3cnn(-c4ccc(O)cc4)c(=O)c3c2C)c1 [1-145]
100 to 1000 nM	COc1cccc(-n2c(C)c3cnn(-c4ccccc4OC)c(=O)c3c2C)c1 [1-148]
100 to 1000 nM	Cc1c2cnn(-c3ccccn3)c(=O)c2c(C)n1-c1ccc(Cl)cc1 [1-3]
100 to 1000 nM	COc1cccc(-n2c(C)c3cnn(-c4ncccn4)c(=O)c3c2C)c1F [1-234]
100 to 1000 nM	COCc1ccc(-n2ncc3c(C)n(-c4cccc(OC)c4)c(C)c3c2=O)cc1 [1-128]
1000 to 10000 nM	Cc1c2cnn(-c3ccc(I)cc3)c(=O)c2c(C)n1-c1cccc(N2CCC2)c1 [1-181]
100 to 1000 nM	Cc1c2cnn(-c3cccc(C(N)=O)c3)c(=O)c2c(C)n1-c1cccc(N2CCC2)c1 [1-152]
100 to 1000 nM	Cc1c2cnn(-c3ccccc3Cl)c(=O)c2c(C)n1-c1ccccc1 [1-20]
100 to 1000 nM	Cc1c2cnn(-c3ccccn3)c(=O)c2c(C)n1-c1cccc2c1CCN2C [1-210]
< 100 nM	CC(=O)c1ccc(-n2c(C)c3cnn(-c4ccccc4)c(=O)c3c2C)cc1 [1-31]
< 100 nM	Cc1c2cnn(-c3ccncc3)c(=O)c2c(C)n1-c1cccc(N2CCC2)c1 [1-156]
100 to 1000 nM	CCc1c2c(=O)n(-c3ccccn3)ncc2c(C)n1-c1cccc(OC)c1 [1-78]
100 to 1000 nM	COc1ccc(-n2ncc3c(C)n(-c4cccc(OC)c4)c(C)c3c2=O)nc1 [1-83]
100 to 1000 nM	Cc1c2cnn(-c3ccc(S(=O)(=O)N(C)C)cc3)c(=O)c2c(C)n1-c1ccccc1 [1-87]
< 100 nM	Cc1cccc(-n2ncc3c(C)n(-c4ccccc4)c(C)c3c2=O)c1 [1-14]
< 100 nM	COc1cccc(-n2c(C)c3cnn(-c4ccc(CO)cc4)c(=O)c3c2C)c1 [1-66]
< 100 nM	Cc1c2cnn(-c3ccccc3)c(=O)c2c(C)n1-c1cccc(N2CCC2)c1 [1-141]
100 to 1000 nM	COc1cccc(-n2c(C)c3cnn(-c4ccc(N5CCOCC5)cc4)c(=O)c3c2C)c1 [1-70]

Source: US20240262833A1, “FUSED HETEROCYCLIC DERIVATIVES AS NEGATIVE ALLOSTERIC MODULATORS OF MGLU7 RECEPTOR” (Addex Pharma S.A., priority 2021, published 2024)
